Experimental data taken from US10301295B2, “Herbicidal compounds” (Syngenta Participations AG, priority 2014, dated 2019).
Where two headings read alike, the source gives them in different places.

What was measured:
Type in all cases: in vivo
wheat = assay: Post-emergence herbicidal activity against cereal crops (wheat) +/- safener, crop selectivity; conditions: 100%=total damage to plant, 0%=no damage; for Post-emergence herbicidal activity against wheat (percentage phytotoxicity), +CQC: 250 g/ha, plus safener cloquintocet-mexyl (CQC) applied at 50 g/ha; for percent phytotoxicity (crop damage) to wheat at 250 g/ha: Triticum aestivum, 360 h, without safener, read-out: Post-emergence herbicidal activity against wheat (percentage phytotoxicity), Wheat - CQC
Summary of the method: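 Test plants raised in pots in a glasshouse (24/18 °C warm or 20/16 °C cool species day/night, 16 h light, 65% humidity) and treated post-emergence about 12 days after sowing. Visual percentage phytotoxicity scored 15 days after application (0% = no damage, 100% = total damage).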

Lolium perenne (LOLPE) = assay: Glasshouse assay for herbicidal activity, pre-/post-emergence (percentage phytotoxicity); conditions: Lolium perenne, Rate 250 g/ha, 100%=total damage, 0%=no damage
Summary of the method: (§1)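 Visual score (0–100% damage) at 15DAA post-em / 20DAA pre-em. Pots, std soil; treated 1 d (pre) or ~12 d (post) after sowing. 24/18 °C warm spp., 20/16 °C cool spp., 16 h light, 65% RH.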

[1] = tested on: Alopecurus myosuroides (ALOMY); assay: as above; conditions: Alopecurus myosuroides, Rate 250 g/ha, 100%=total damage, 0%=no damage
Summary of the method: as §1

Avena fatua (AVEFA) = assay: as above; conditions: Avena fatua, Rate 250 g/ha, 100%=total damage, 0%=no damage
Summary of the method: as §1

[2] = tested on: Echinochloa crus-galli (ECHCG); assay: as above; conditions: Echinochloa crus-galli, Rate 250 g/ha, 100%=total damage, 0%=no damage
Summary of the method: as §1

[3] = post-emergence, 360 h, post-emergence, visual assessment 15 DAA, read-out: Post-emergence herbicidal activity (percentage phytotoxicity), LOLPE POST
[4] = pre-emergence, 480 h, pre-emergence, visual assessment 20 DAA, read-out: Pre-emergence herbicidal activity (percentage phytotoxicity), LOLPE PRE
[5] = 360 h, post-emergence, visual assessment 15 DAA, read-out: Post-emergence herbicidal activity (percentage phytotoxicity), ALOMY POST
[6] = 480 h, pre-emergence, visual assessment 20 DAA, read-out: Pre-emergence herbicidal activity (percentage phytotoxicity), ALOMY PRE
[7] = post-emergence, 360 h, post-emergence, visual assessment 15 DAA, read-out: Post-emergence herbicidal activity (percentage phytotoxicity), AVEFA POST
[8] = pre-emergence, 480 h, pre-emergence, visual assessment 20 DAA, read-out: Pre-emergence herbicidal activity (percentage phytotoxicity), AVEFA PRE
[9] = post-emergence, 360 h, post-emergence, visual assessment 15 DAA, read-out: Post-emergence herbicidal activity (percentage phytotoxicity), ECHCG POST
[10] = pre-emergence, 480 h, pre-emergence, visual assessment 20 DAA, read-out: Pre-emergence herbicidal activity (percentage phytotoxicity), ECHCG PRE

Row | Structure (SMILES) | Post-emergence herbicidal activity against wheat (percentage phytotoxicity), +CQC (wheat) | percent phytotoxicity (crop damage) to wheat at 250 g/ha (wheat) | pest or weed control at 250 g/ha (Lolium perenne (LOLPE); [3]) | pest or weed control at 250 g/ha (Lolium perenne (LOLPE); [4]) | pest or weed control at 250 g/ha [1, 5] | pest or weed control at 250 g/ha [1, 6] | pest or weed control at 250 g/ha (Avena fatua (AVEFA); [7]) | pest or weed control at 250 g/ha (Avena fatua (AVEFA); [8]) | pest or weed control at 250 g/ha [2, 9] | pest or weed control at 250 g/ha [2, 10]
1 | Cc1cc(C)c(C2C(=O)CC(CCNS(=O)(=O)c3ccc(Cl)cc3Cl)C2=O)c(C)c1 (centres unmarked) [Compound A84] | 0% | 0% | 70% | 50% | 30% | 50% | 80% | 10% | 50% | 30%
2 | Cc1cc(C)c(C2C(=O)CC(CCNS(=O)(=O)c3ccc(OC(F)(F)F)cc3)C2=O)c(C)c1 (centres unmarked) [Compound A85] | 10% | 20% | 50% | 80% | 60% | 70% | 80% | 80% | 40% | 70%
3 | Cc1cc(C)c(C2C(=O)CC(CCNS(=O)(=O)c3ccccc3C(F)(F)F)C2=O)c(C)c1 (centres unmarked) [Compound A86] | 0% | 20% | 30% | 60% | 50% | 20% | 0% | 20% | 30% | 60%
4 | Cc1cc(C)c(C2C(=O)CC(CCNS(=O)(=O)c3ccccc3C)C2=O)c(C)c1 (centres unmarked) [Compound A87] | 0% | 20% | 0% | 70% | 0% | 0% | 50% | 0% | 0% | 30%
5 | Cc1cc(C)c(C2C(=O)CC(CCNC(=S)Nc3ccccc3F)C2=O)c(C)c1 (centres unmarked) [Compound A88] | 0% | 0% | 60% | 40% | 0% | 0% | 0% | 0% | 0% | 40%
6 | Cc1cc(C)c(C2C(=O)CC(CCNC(=S)Nc3ccc(F)cc3)C2=O)c(C)c1 (centres unmarked) [Compound A89] | 0% | 10% | 0% | 40% | 0% | 0% | 40% | 0% | 0% | 30%
7 | Cc1cc(C)c(C2C(=O)CC(CCNC(=S)Nc3ccccc3)C2=O)c(C)c1 (centres unmarked) [Compound A90, 1-[2-[2,4-dioxo-3-(2,4,6-trimethylphenyl)cyclopentyl]ethyl]-3-phenyl-thiourea] | 20% | 0% | 20% | 70% | 20% | 0% | 60% | 0% | 60% | 40%
8 | Cc1cc(C)c(C2C(=O)CC(CCNC(=S)NC(=O)c3ccccc3)C2=O)c(C)c1 (centres unmarked) [Compound A91] | 70% | 70% | 70% | 70% | 80% | 60% | 10% | 60% | 0% | 70%
